Test: xn = mol fraction of the nth substance listed
Conditions: 101 kPa, Liquid; for viscosity: Falling or rolling sphere viscometry; for mass density: Vibrating tube method

CCOS(=O)(=O)[O-].CC[N+]1(C)CCCC1 [1-ethyl-1-methylpyrrolidinium ethyl sulfate] + O
Conditions | mass density [kg/m3] | viscosity [mPa·s]
313.15 K, x1 = 0.0348 | 1046.88 | 1.414
313.15 K, x1 = 0.0933 | 1095.76 | 3.185
313.15 K, x1 = 0.1312 | 1114.51 | 5.031
313.15 K, x1 = 0.2458 | 1144.25 | 10.31
313.15 K, x1 = 0.3495 | 1155.83 | 15.65
313.15 K, x1 = 0.5281 | 1166.58 | 27.98
313.15 K, x1 = 0.693 | 1171.73 | 42.48
313.15 K, x1 = 0.7794 | 1172.62 | 51.33
313.15 K, x1 = 0.895 | 1174.19 | 64.67
313.15 K, x1 = 1 | 1176.31 | 78.32
318.15 K, x1 = 0.0348 | 1044.06 | 1.27
318.15 K, x1 = 0.0933 | 1092.47 | 2.8
318.15 K, x1 = 0.1312 | 1111.07 | 4.391
318.15 K, x1 = 0.2458 | 1140.77 | 8.889
318.15 K, x1 = 0.3495 | 1152.31 | 13.37
318.15 K, x1 = 0.5281 | 1163.34 | 23.71
318.15 K, x1 = 0.693 | 1168.5 | 35.67
318.15 K, x1 = 0.7794 | 1169.22 | 42.9
318.15 K, x1 = 0.895 | 1171.07 | 53.73
318.15 K, x1 = 1 | 1173.63 | 64.72
323.15 K, x1 = 0.0348 | 1041.44 | 1.149
323.15 K, x1 = 0.0933 | 1089.13 | 2.479
323.15 K, x1 = 0.1312 | 1107.59 | 3.87
323.15 K, x1 = 0.2458 | 1137.17 | 7.729
323.15 K, x1 = 0.3495 | 1149.28 | 11.6
323.15 K, x1 = 0.5281 | 1160.06 | 20.29
323.15 K, x1 = 0.693 | 1165.16 | 30.18
323.15 K, x1 = 0.7794 | 1165.65 | 36.07
323.15 K, x1 = 0.895 | 1167.97 | 44.78
323.15 K, x1 = 1 | 1170.95 | 53.51
328.15 K, x1 = 0.0348 | 1038.48 | 1.046
328.15 K, x1 = 0.0933 | 1085.76 | 2.211
328.15 K, x1 = 0.1312 | 1103.99 | 3.392
328.15 K, x1 = 0.2458 | 1133.19 | 6.803
328.15 K, x1 = 0.3495 | 1145.36 | 10.13
328.15 K, x1 = 0.5281 | 1156.72 | 17.54
328.15 K, x1 = 0.693 | 1161.95 | 25.84
328.15 K, x1 = 0.7794 | 1162.9 | 30.7
328.15 K, x1 = 0.895 | 1164.87 | 37.8
328.15 K, x1 = 1 | 1168.27 | 44.82
333.15 K, x1 = 0.0348 | 1035.45 | 0.992
333.15 K, x1 = 0.0933 | 1082.31 | 1.985
333.15 K, x1 = 0.1312 | 1100.26 | 2.943
333.15 K, x1 = 0.2458 | 1129.65 | 6.014
333.15 K, x1 = 0.3495 | 1142.23 | 8.896
333.15 K, x1 = 0.5281 | 1153.16 | 15.32
333.15 K, x1 = 0.693 | 1158.04 | 22.4
333.15 K, x1 = 0.7794 | 1160.04 | 26.46
333.15 K, x1 = 0.895 | 1162.1 | 32.29
333.15 K, x1 = 1 | 1165.59 | 37.95
338.15 K, x1 = 0.0348 | 1033.08 | 0.983
338.15 K, x1 = 0.0933 | 1079.2 | 1.8
338.15 K, x1 = 0.1312 | 1097.07 | 2.454
338.15 K, x1 = 0.2458 | 1125.34 | 5.34
338.15 K, x1 = 0.3495 | 1138.14 | 7.739
338.15 K, x1 = 0.5281 | 1150.02 | 13.29
338.15 K, x1 = 0.693 | 1155.15 | 19.06
338.15 K, x1 = 0.7794 | 1156.48 | 22.65
338.15 K, x1 = 0.895 | 1158.93 | 27.65
338.15 K, x1 = 1 | 1162.91 | 32.87
343.15 K, x1 = 0.0348 | 1030.38 | 0.976
343.15 K, x1 = 0.0933 | 1075.92 | 1.61
343.15 K, x1 = 0.1312 | 1093.61 | 1.923
343.15 K, x1 = 0.2458 | 1122.44 | 4.202
343.15 K, x1 = 0.3495 | 1135.34 | 6.568
343.15 K, x1 = 0.5281 | 1146.94 | 11.31
343.15 K, x1 = 0.693 | 1152.01 | 16.47
343.15 K, x1 = 0.7794 | 1153.23 | 19.55
343.15 K, x1 = 0.895 | 1155.85 | 24.69
343.15 K, x1 = 1 | 1160.23 | 29.23
